From patent US20210236532A1, “THERAPEUTIC AGENT FOR FRONTOTEMPORAL LOBAR DEGENERATION, METHOD FOR SCREENING THERAPEUTIC AGENT FOR FRONTOTEMPORAL LOBAR DEGENERATION AND METHOD FOR TREATING FRONTOTEMPORAL LOBAR DEGENERATION” (National University Corporation Tokyo Medical and Dental …, priority 2018, published 2021)

Tests used:
Type in all cases: in vivo
PGRN-KI mice [1] = assay: Fear conditioning experiment (freezing reaction)
Procedure: (§1) The following two types of behavioral experiments (fear conditioning experiment and Morris water maze test) were performed, and an impaired cognitive response was found in the PGRN-KI mice of 12 weeks or older. Such an impaired response is a symptom similarly seen in frontotemporal lobar degeneration. It is to be noted that all behavioral tests are carried out according to the method indicated by Ito H. et al. (Mol Psychiatry. 2015 April; 20 (4): 459-471).
A fear conditioning experiment was performed with the PGRN-KI mice and control mice (C57BL/6J mice without the knock-in). Specifically, the mice received electrical stimulation (0.4 mA, 2 s) on their paws along with sound stimulation (65 dB white noise, 30 s). Twenty-four hours later, the frequency of the freezing reaction in the mice was measured when the mice were subjected to the sound stimulation without the electrical stimulation in the same chamber. […] This means that the cognitive response of the PGRN-KI mice was impaired as compared with the control mice. […]

PGRN-KI mice [2] = assay: Morphological analysis of spines (two-photon excitation microscope, IMARIS)
Procedure: The knockdown of each gene was performed according to the following procedures: Lentiviral particles (2×10^5 titer units/100 μl) containing scrambled shRNA (sc-108080, manufactured by Santa Cruz Biotechnology), Tau-shRNA (sc-430402-V, manufactured by Santa Cruz Biotechnology), B-Raf shRNA (sc-63294-V, manufactured by Santa Cruz Biotechnology), or Tyro3-siRNA (iV037848, manufactured by ABM) were diluted to 1:4 with ACSF buffer (NaCl 125 mM; KCl 2.5 mM; NaH2PO4 1.25 mM; MgCl2 1 mM; CaCl2) 1 mM; NaHCO326 mM; and glucose 25 mM). Further, a plasmid vector (10 μg) containing scrambled shRNA (TG501653, manufactured by OriGene), PKCα-shRNA (TG501653, manufactured by OriGene), or Gas6-shRNA (sc-35451-SH, manufactured by Santa Cruz Biotechnology) was dissolved in 100 μl of in vivo-jetPEI (201-10G, manufactured by Polyplus-transfection). […]
Images of dendrites from the mice (at 12 weeks of age) knocked down for each gene were acquired using a two-photon excitation microscope. In addition, the number of spines was measured using “IMARIS software” (IMARIS 7.2.2, manufactured by Bitplane GmbH). […]
Images of dendrites from the mice (at 12 weeks of age) in each administered group were acquired using a two-photon excitation microscope. In addition, the number of spines was measured using “IMARIS software” (IMARIS 7.2.2, manufactured by Bitplane GmbH). […]

PGRN-KI mice [3] = assay: Morris water maze test
Procedure: as §1
A Morris water maze test was performed with the PGRN-KI mice and control mice (C57BL/6J mice without the knock-in). Specifically, the mice received a 60-second trial four times per day for 5 days, and the time period taken for each mouse to reach the platform was measured. […] This means that the cognitive response of the PGRN-KI mice was impaired as compared with the control mice.
The knockdown of each gene was performed according to the following procedures: Lentiviral particles (2×10^5 titer units/100 μl) containing scrambled shRNA (sc-108080, manufactured by Santa Cruz Biotechnology), Tau-shRNA (sc-430402-V, manufactured by Santa Cruz Biotechnology), B-Raf shRNA (sc-63294-V, manufactured by Santa Cruz Biotechnology), or Tyro3-siRNA (iV037848, manufactured by ABM) were diluted to 1:4 with ACSF buffer (NaCl 125 mM; KCl 2.5 mM; NaH2PO4 1.25 mM; MgCl2 1 mM; CaCl2) 1 mM; NaHCO326 mM; and glucose 25 mM). […]

[4] = PGRN-KI mice, treated vs untreated/unknocked-down PGRN-KI mice
[5] = control mice (C57BL/6J without the knock-in), with or without agent

## Cn1c2ccccc2c2c3c(c4c5ccccc5n(CCC#N)c4c21)CNC3=O [Go6976]
PGRN-KI mice [1]; [4]
  cognitive response in the fear conditioning experiment: significantly improved
PGRN-KI mice [1]; [5]
  cognitive response in the fear conditioning experiment: no change
PGRN-KI mice [2]; PGRN-KI mice at 12 weeks of age, treated vs untreated/unknocked-down PGRN-KI mice
  number of spines: markedly higher number of spines
PGRN-KI mice [2]; control mice (C57BL/6J without the knock-in) at 12 weeks of age, with or without agent
  number of spines: no change
PGRN-KI mice [3]; [4]
  cognitive response in the Morris water maze test: significantly improved
PGRN-KI mice [3]; [5]
  cognitive response in the Morris water maze test: no change
